Experimental findings from PubChem BioAssay (NCI) are described below.

What all share (assay): growth of human tumour cells (NCI), 48 h
Assay [1] has as its system A498 renal.
The subject of assay [2] is K-562 leukemia.
Assay [3] concerns HS 578T breast.
In assay [4] the test system is HL-60(TB) leukemia.
Assay [5] has as its system OVCAR-8 ovarian.
Assay [6] concerns MALME-3M melanoma.
Assay [7] has as its system UO-31 renal.
The subject of assay [8] is NCI-H522 lung.
Assay [9] concerns T-47D breast.
Assay [10] relates to HOP-62 NSCLC.

Each structure is given as a SMILES string.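 In this assay, cells in 96-well plates receive the compound at five concentrations for 48 hours. Endpoints are linearly interpolated between the surrounding concentrations. At the GI50, growth is halved. TGI: concentration producing complete growth inhibition.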

As to `COc1cc(Cn2c(-c3ccccc3)cc3c2-c2oncc2CC3)cc(OC)c1OC`, the GI50 was 0.271 µM in [1]; 0.364 µM in [2]; 0.51 µM in assay [3]; 0.32 µM in assay [4]; 5.38 µM in assay [5]; 18.4 µM in [6]. Besides, the GI50 in [7] is 3.23 µM; in assay [8], 0.294 µM; in assay [9], 1.07 µM; in [10] it was 2.37 µM. The TGI in [1] is 2.06 µM; in assay [2], greater than 100 µM; in [3] it was greater than 100 µM; in [4], 1.36 µM; in assay [5], greater than 100 µM; in assay [6], 84.4 µM. Also, the TGI was greater than 100 µM in assay [7], 5.99 µM in assay [8], 81.2 µM in [9] and greater than 100 µM in [10].

For the molecule `COc1ccc(-c2cc3c(nn2)-c2ccccc2C3=O)cc1`, the GI50 in assay [1], in assay [2], in assay [3], in assay [4], in assay [5] and in assay [6] was greater than 100 µM throughout. For the same molecule, the GI50 in assay [7], in assay [8], in assay [9] and in assay [10] was greater than 100 µM each time. The TGI in assay [1], in assay [2], in assay [3], in assay [4], in assay [5] and in assay [6] was greater than 100 µM each time. For the same molecule, the TGI in assay [7], in assay [8], in assay [9] and in assay [10] was greater than 100 µM in each case.

Turning to `NCCCCn1c2c(c3ccccc3c1=O)C(=O)c1ccccc1-2`, the GI50 was 0.543 µM in assay [1]; 0.168 µM in [2]; 0.538 µM in [3]; 0.0382 µM in assay [4]; 0.0902 µM in assay [5]; 0.311 µM in assay [6]. For the same molecule, the GI50 in assay [7] was 0.123 µM; in assay [8], 0.424 µM; in [9] it was 0.631 µM; in assay [10], 0.0528 µM. The TGI in assay [1] came out at 1.71 µM; in [3], 4.75 µM; in assay [4], 0.0919 µM; in [5] it was 0.625 µM; in [6], 1.12 µM; in assay [7], 1.45 µM. The TGI in [8] is 2.31 µM; in assay [9], 6.81 µM; in assay [10] it was 0.272 µM.

As for `O=C(C[C@@H](C(=O)NCc1cccc(C(F)(F)F)c1)N1C(=O)[C@@H](N2C(=O)OC[C@@H]2c2ccccc2)[C@H]1/C=C/c1ccccc1)NC1CCN(Cc2ccccc2)CC1`, the GI50 in assay [1] was 2.19 µM; in assay [2], 1.77 µM; in assay [3], 10.3 µM; in assay [4], 10.4 µM; in assay [5] it was 3.08 µM; in assay [6], 2.78 µM. Moreover, the GI50 is 13.5 µM in assay [7], 2.81 µM in [8], 15.7 µM in assay [9] and 14.5 µM in assay [10]. The TGI in assay [1] was 11.9 µM; in assay [2] it was 4.17 µM; in assay [3] it was 29.6 µM; in assay [4], 33.8 µM; in [6], 7.39 µM; in assay [7] it was 55.3 µM. Also, the TGI came to 13.2 µM in assay [8], 38.9 µM in assay [9] and 27.7 µM in [10].

Turning to `CC(C)CC(N)C(=O)O` (stereo not drawn), the TGI in assay [1], in assay [2], in assay [3], in assay [4], in [5] and in assay [6] was greater than 100 µM throughout. For the same molecule, the TGI in assay [7], in assay [8], in assay [9] and in assay [10] was greater than 100 µM each time.

Turning to `COc1ccc(C2CC(=O)c3c(O)c(OC)c(OC)c(OC)c3O2)c(O)c1` (stereo not drawn), the GI50 was 0.126 µM in assay [1]; 0.0378 µM in [2]; 0.201 µM in [3]; 0.0459 µM in assay [4]; 0.294 µM in [5]; 13.1 µM in [6]. Besides, the GI50 was 1.09 µM in [7], 0.0326 µM in [8], 0.113 µM in assay [9] and 0.211 µM in assay [10]. Further, the TGI in assay [1] came to 0.984 µM; in [2], 26.2 µM; in assay [3], 48.7 µM; in assay [4] it was 0.632 µM; in assay [5], 40.9 µM; in [6], 26.7 µM. Also, the TGI in assay [7] was 21.4 µM; in [8], 0.188 µM; in [9] it was 24.6 µM; in assay [10], 28.2 µM.

For the molecule `N#C/C(C(=S)Nc1ccccc1)=C1/NN=C2c3ccccc3C(=O)NN21`, the GI50 in assay [1] was 21.3 µM; in [2] it was 22.1 µM; in [3], 22.7 µM; in assay [4], 22 µM; in assay [5] it was 32 µM; in [6] it was 13.9 µM. Moreover, the GI50 is 33.4 µM in [7], 11.8 µM in assay [8], 36.7 µM in assay [9] and 44.4 µM in assay [10]. Also, the TGI in assay [1] is 53.1 µM; in [2] it was greater than 100 µM; in assay [3] it was 57.2 µM; in assay [4], 61.7 µM; in assay [5], greater than 100 µM; in [6] it was greater than 100 µM. In addition, the TGI is greater than 100 µM in assay [7], 63.3 µM in assay [8], greater than 100 µM in [9] and greater than 100 µM in [10].
